Values after ≈ are worked out from the molar mass of the structure shown. Structures can show the parent of a compound that is named as a salt. Where two headings read alike, the source gives them in different places.
Tests used:
[1] = tested on: βIII tubulin expression (neurons in early stage of development); assay: Differentiation, immunoenzymatic determination of βIII-tubulin expression; assay type: cell-based, rat; conditions: for Inhibition of differentiation, ID50: Expression of βIII tubulin (OD, 450 nm): five days exposure, mean±SD from 3 independent experiments
Description: (§1) This study was carried out according to compliance with bioethical principles. Wistar albino rats were housed under standard laboratory condition of lighting (12 h dark/12 h light), temperature (20 ± 2 °C), and relative humidity (50 – 60%) with free access to commercial feed (Murigan) and tap water. Animals (10–12 week old) were mated overnight and the appearance of a vaginal plug on the next morning was considered as day one of pregnancy. Rat embryos were collected on day 13 of gestation. Procedures were followed essentially as described in INVITTOX Protocol No. 114 [23].
(§2) Tissues were pooled from a number of embryos, washed and incubated for 20 min at 37 °C in sequence in Earle’s balanced salt solution calcium and magnesium-free (CMF, GIBCO), and 1% trypsin (GIBCO) in CMF. Then the tissues were washed in CMF and culture medium (Ham’s F-12 nutrient mixture: foetal bovine serum: L-glutamine: penicillin/streptomycin - 88:10:1:1 v/v – all materials were from GIBCO). A single cell suspension was ensured by mechanical dissociation followed by passing the suspension through sterile 10 μm nylon mesh. Viable cells density was assessed by trypan blue exclusion assay using Bürker’s haemocytometer.
(§3) High-cell-density cultures were set up carefully as a 5–10 μL drop in the centre of each well of 96-well fibronectin coated microplate (BECTON DICKINSON), so that number of cells /well was 5 × 10^4. After 2 h incubation (37°C, 5% CO2) the cells were exposed to different concentrations of tested compounds and incubated five days. […]
(§4) To indicate the target cells damaged, immunofluorescent (IF) and immunoenzymatic (IE) staining was performed. […] IF staining fluorescence was examined using a fluorescent microscope (λ = 490 nm). In IE staining, a substrate (3,3’,5,5’-tetramethylbenzidine, SIGMA) was added (100 μL/well) and reaction was evaluated for 30 min at room temperature. […] The expression level of particular proteins was determined by measuring optical density at 450 nm. […]

[2] = tested on: rat embryo midbrain micromass cultures; assay type: cell-based
Description: (§5) The values of drug concentration, which inhibited cells viability by 50% (IC50) and reduced differentiation by 50% (ID50) when compared to unexposed control cells, were calculated according to Hill’s equation (sigmoidal model of concentration-response curve). Statistically significant differences between mean values obtained in immunoenzymatic analysis were determined based on analysis of variance (ANOVA) followed by Tukey – Kramer post-hoc test. Values of P < 0.05 were considered as statistically significant. All calculations were done using LSW Data Analysis Toolbox ver. 1.1.1. (MDL® Information Systems, Inc.) in Microsoft Excel 2000 spreadsheet and Kyplot software (Koichi Yoshioka, version 2.0 beta 4). In order to classify embryotoxic potential the mean inhibition concentrations for differentiation (ID50) of test chemical was used and the biostatistically based prediction model (PM) was applied. It is based on the linear discriminate analysis of three functions: function I: 6.65 × log (ID50)–9.49; function II: 6.16 × log (ID50)–8.29; function III: –1.31 × log (ID50)–1.42. The function providing the highest value was used to determine the class of embryotoxicity (class 1 – non-embryotoxic, class 2 – weakly embryotoxic, class 3 – strongly embryotoxic).

[3] = tested on: GFAP expression (astrocytes); assay: Differentiation, immunoenzymatic determination of GFAP expression; assay type: cell-based, rat; conditions: for Inhibition of differentiation, ID50: Expression of GFAP (OD, 450 nm): five days exposure, mean±SD from 3 independent experiments
Description: as §1, §2, §3, §4

in vitro = assay type: cell-based; conditions: Wistar albino, rat
Description: as §1
as §2, with “A single cell suspension was ensured by mechanical dissociation followed by passing the suspension through sterile 10 μm nylon mesh.” left out, “haemocytometer. […]” for “haemocytometer.”
Cytotoxicity was quantified using neutral red uptake test (NRU). […] The eluted stain intensity (optical density, OD) was measured at 540 nm following at least 2 h incubation. Surviving cell number was directly related to the absorbance of the eluted stain. […]

[4] = tested on: MAP2 expression (neurons in late stage of development); assay: Differentiation, immunoenzymatic determination of MAP2 expression; assay type: cell-based, rat; conditions: for Inhibition of differentiation, ID50: Expression of MAP2 (OD, 450 nm): five days exposure, mean±SD from 3 independent experiments
Description: as §1, §2, §3, §4

[5] = tested on: neurons and astrocytes of ventral mesencephalon; conditions: protein and DNA synthesis, rat embryo brain aged 15–16 days, cited from earlier work
mice offspring brain = conditions: three month mice offspring exposed prenatally; cited from earlier work
[6] = tested on: rat embryo midbrain micromass cultures (neurospheres); assay: Differentiation, computerised image analysis of haematoxylin stained neurospheres; assay type: cell-based
Description: as §1, §2
High-cell-density cultures were set up carefully as a 5–10 μL drop in the centre of each well of 96-well fibronectin coated microplate (BECTON DICKINSON), so that number of cells /well was 5 × 10^4. After 2 h incubation (37°C, 5% CO2) the cells were exposed to different concentrations of tested compounds and incubated five days. Then dual assessment i.e. cytotoxicity and an impact of tested compound on cells differentiation (embryotoxicity) were done in the same cultures.
After removing the eluted solution, the cells were fixed in 10% formaldehyde for 20 min and stained (approximately 10 s) with Gill’s haematoxylin. Morphometric analysis was performed on digitised images of cells taken with Nikon SMZ stereoscopic microscope linked to Panasonic CCD BP-KR 222E colour camera. The number of neurospheres (containing differentiated neural cells) was counted and their total and individual area was measured using computer image analysis software (LUCIA Measurement System).
as §5, with “It is based on the linear discriminate analysis of three functions: function I: 6.65 × log (ID50)–9.49; function II: 6.16 × log (ID50)–8.29; function III: –1.31 × log (ID50)–1.42.” left out

[7] = tested on: foetuses of pregnant rats; conditions: single oral dose; cited from earlier work
[8] = tested on: neurons and astrocytes of cerebellum; conditions: protein and DNA synthesis, rat embryo brain aged 15–16 days, cited from earlier work
[9] = five days exposure, computerised image analysis, mean±SD from 3 independent experiments

O=c1[nH]cc(F)c(=O)[nH]1 [5-FU, 5-fluorouracil, reference compound]
Inhibition of differentiation, ID50: Expression of βIII tubulin (OD, 450 nm) [1]: 0.14 ± 0.010 mg/L
Class of embryotoxicity (prediction model) ([2]; rat): class 3
Inhibition of differentiation, ID50: Expression of GFAP (OD, 450 nm) [3]: 0.18 ± 0.012 mg/L
IC50 (in vitro): 0.15 ± 0.01 mg/L (≈ 1.15 µM)
Inhibition of differentiation, ID50: Expression of MAP2 (OD, 450 nm) [4]: 0.16 ± 0.010 mg/L

C[C@@H]1Cc2c(Cl)cc(C(=O)N[C@@H](Cc3ccccc3)C(=O)O)c(O)c2C(=O)O1 [OTA, ochratoxin A]
Median inhibition concentration, astrocytes ventral mesencephalon [5]: ~16.2 ± 2.15 µg/mL
Median inhibition concentration, neurons ventral mesencephalon [5]: ~5.6 ± 0.40 µg/mL
IC50 ([5]; read-out: Median inhibition concentration, astrocytes ventral mesencephalon): ~40 µM
IC50 ([5]; read-out: Median inhibition concentration, neurons ventral mesencephalon): ~14 µM
Tissue weight and DNA content, cerebral hemispheres (mice offspring brain): 80 % of control
Tissue weight and DNA content, remainder of the brain (mice offspring brain): 90 % of control
IC50/ID50 ratio: βIII tubulin ([1]; NRU IC50 over ID50): 0.5
Inhibition of differentiation, ID50: Expression of βIII tubulin (OD, 450 nm) [1]: 4.84 ± 0.581 mg/L
IC50/ID50 ratio: Number of neurospheres ([6]; NRU IC50 over ID50): 0.7
IC50/ID50 ratio: Particular area of neurospheres ([6]; NRU IC50 over ID50): 1.9
IC50/ID50 ratio: Total area of neurospheres ([6]; NRU IC50 over ID50): 1.1
Inhibition of differentiation, ID50: Number of neurospheres [6, 9]: 3.40 ± 1.100 mg/L
Inhibition of differentiation, ID50: Particular area of neurospheres [6, 9]: 1.29 ± 0.923 mg/L
Inhibition of differentiation, ID50: Total area of neurospheres [6, 9]: 2.19 ± 0.245 mg/L
Differentiated cells after exposure to the two highest concentrations ([6]; two highest concentrations, 5 days, haematoxylin staining): no differentiated cells were observed
Minimum effective teratogenic dose [7]: 2.75 mg/kg b.w.
IC50/ID50 ratio, all endpoints ([2]; all differentiation endpoints): < 2
ID50, all endpoints of differentiation ([2]; for all endpoints): < 10 mg/L
Class of embryotoxicity (prediction model) ([2]; function with highest value from ID50): class 3
IC50/ID50 ratio: GFAP ([3]; NRU IC50 over ID50): 0.5
Inhibition of differentiation, ID50: Expression of GFAP (OD, 450 nm) [3]: 4.87 ± 0.351 mg/L
IC50 at 5 days (in vitro; five days exposure, mean±SD from 3 independent experiments, read-out: Cytotoxicity IC50 (Viability, Neutral Red OD, 540 nm)): 2.52 ± 0.062 mg/L (≈ 6.24 µM)
Median inhibition concentration, astrocytes cerebellum [8]: ~27.9 ± 3.6 µg/mL
Median inhibition concentration, neurons cerebellum [8]: ~9.7 ± 2.8 µg/mL
IC50 ([8]; read-out: Median inhibition concentration, astrocytes cerebellum): ~69 µM
IC50 ([8]; read-out: Median inhibition concentration, neurons cerebellum): ~24 µM
IC50/ID50 ratio: MAP2 ([4]; NRU IC50 over ID50): 0.6
Inhibition of differentiation, ID50: Expression of MAP2 (OD, 450 nm) [4]: 3.90 ± 0.350 mg/L

CC1(C)S[C@@H]2[C@H](NC(=O)Cc3ccccc3)C(=O)N2[C@H]1C(=O)O [Pen-G, Penicillin G sodium salt, reference compound]
Embryotoxicity at fixed concentration [2]: not embryotoxic
Class of embryotoxicity (prediction model) ([2]; rat): class 1

Reference: publication PMC2662459, “Developmental Toxicity of Ochratoxin A in Rat Embryo Midbrain Micromass Cultures” (International Journal of Molecular Sciences, 2008)
